Laboratory results: US20220289746A1, “PYRROLIDINE DERIVATIVES” (Hoffmann-La Roche Inc., priority 2019, published 2022)

Tests used:
[1] = target: T1, human M4 receptor (Homo sapiens, UniProt P08173); assay: cAMP assay for M4 positive allosteric modulators (M4 PAM cAMP assay); format: cell-based; set-up: expressed in transfected cells; host or cells: CHO-K1; conditions: Table 1; CHO-K1 cells expressing human M4; forskolin 7.5 μM + acetylcholine EC20 (0.2 nM)
T1 sequence (P08173 1-479): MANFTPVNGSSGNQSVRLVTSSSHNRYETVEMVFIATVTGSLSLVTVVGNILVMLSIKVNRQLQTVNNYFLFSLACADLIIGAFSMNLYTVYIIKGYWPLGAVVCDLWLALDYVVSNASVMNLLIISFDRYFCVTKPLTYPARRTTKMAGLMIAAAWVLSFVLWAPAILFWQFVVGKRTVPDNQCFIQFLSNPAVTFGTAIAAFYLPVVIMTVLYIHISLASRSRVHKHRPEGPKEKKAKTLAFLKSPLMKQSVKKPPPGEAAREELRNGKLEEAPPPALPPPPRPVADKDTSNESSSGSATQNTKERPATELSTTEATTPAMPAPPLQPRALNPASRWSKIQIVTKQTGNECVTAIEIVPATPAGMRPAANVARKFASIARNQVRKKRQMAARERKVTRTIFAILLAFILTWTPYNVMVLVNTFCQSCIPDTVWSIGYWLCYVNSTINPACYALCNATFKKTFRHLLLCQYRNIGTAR
Procedure: The potency of M4 PAMs was determined using a cell-based cyclic adenosine monophosphate assay. The assay was performed with CHO-Kl cells stably expressing untagged human M4 receptor and cAMP was quantified using the Nano-TRF Detection Assay kit (Roche, Cat. No. 05214386) as described in the kit instructions. The cells were grown in Ham's F-12 Nutrient mix supplemented with 10% FBS and 200 μg/ml geneticin until they reached 80% confluency. The cells were washed with PBS, detached with accutase and resuspended in assay buffer consisting of HBSS and 0.1% BSA. They were then seeded in black 384-well plates (Corning, Cat. No. 3764) at a density of 20,000 cells/20 μl per well until the addition of compounds.
Test compounds were serially diluted 1:2 in 100% DMSO and spotted in 384-well plates at 0.5 μl/well. The compounds were then diluted in water containing IBMX (Sigma, Cat. No. 17018) and a sample (5 μl) was added to the cells for 15 minutes at 37° C./5% CO2. After this incubation the cells were stimulated with a combination of forskolin (7.5 μM) and acetylcholine EC20 (0.2 nM) in assay buffer for 30 minutes at 37° C./5% CO2. The assay was stopped by adding cAMP detection mix (15 μl/well, containing detergents for cell lysis) for one hour at RT.
The test plates were read using a SpectraMax i3x reader (Molecular Devices). The exported raw data was used to calculate the FRET signal based on the P-factor as per cAMP kit instructions. The data was normalized to the activity of acetylcholine plus forskolin, with 2 nM of acetylcholine plus 7.5 μM forskolin defined as 100% activity. Dose response curves were fitted to the percent activity data of the compounds using a sigmoidal dose response model (XLfit, IDBS) and the data were reported as EC50 and percent efficacy.

[2] = target: T1, human M4 receptor; assay: Calcium flux assay using fluorescent imaging (M4 PAM FLIPR assay); format: cell-based; set-up: expressed in transfected cells; host or cells: CHO (monoclonal line, clone 2); conditions: Table 1; CHO cells expressing human M4+Gqi5; acetylcholine EC20
Procedure: CHO cells were transfected with expression plasmid encoding the human M4 receptor and a Gqi5 construct to redirect Gi signaling to calcium. Stable cells were cloned by limiting dilution to yield a monoclonal cell line expressing human M4+Gqi5 (clone 2). The stable cells were grown in DMEM containing 10% FBS, 200 ug/ml Geneticin and 800 ug/ml Hygromycin at 37° C. in a 10% CO2 incubator at 95% humidity.
Calcium Flux Assay Using Fluorescent Imaging (“M4 PAM FLIPR” Assay)
On the afternoon before the assay, cells were plated at a density of 50,000 cells/well into black 96 well plates with clear bottoms to yield a confluent monolayer the next day. Hanks balanced salt solution, without phenol red, containing 20 mM HEPES (pH 7.3) and 2.5 mM probenecid (assay buffer) was prepared fresh for each experiment. Compound dilutions were made using a Beckman Biomek 2000 laboratory automation workstation, in assay buffer. The dye-loading buffer consisted of a final concentration of 2 μM Fluo-4-AM (dissolved in DMSO and pluronic acid) and 65 μg/ml amidoblack in assay buffer. The existing culture media was removed from the wells and 100 μl of the dye-loading buffer was added to each well and incubated for approximately 90 min at 37° C. in a 5% CO2 incubator at 95% humidity.
Calcium flux in the dye-loaded cells was measured with the fluorescence reader Hamamatsu FDSS 7000. To test compounds as agonists, compound addition (25 μl) was made 10 s into the fluorescent measurements and fluorescent response was recorded for 3 minutes. The fluorescence data was expressed as percentage of the fluorescence obtained by an EC100 concentration (3 μM) of the endogenous full agonist acetylcholine. Each test compound concentration-response curve was constructed using a four parameter logistic equation in Microsoft Excel XLFit as follows:
Y=Minimum+((Maximum−Minimum)/(1+10^(LogEC50−X)nH)).
The concentration of agonist that produced a half-maximal response is represented by the EC50 value. Maximum and minimum are the maximum and minimum fluorescence signal in % respectively. nH is the Hill slope.
To measure positive allosteric modulator activity 25 μl of an EC20 concentration of the endogenous agonist acetylcholine is added to the cells already pre-incubated with the test compound for 15 minutes.
The M4 PAM dose response is constructed using the agonist dose-response equation above. The concentration of PAM that produced a half-maximal response is represented by the EC50 value and the maximum signal measured is the PAM efficacy expressed in % of the EC100 (3 μM) acetylcholine response. • cAMP Assay for M4 Positive Allosteric Modulators (“M4 PAM cAMP” Assay)

Row | SMILES | EC50 [1] | EC50 [2]
1 | Cc1nc2c(c(C)c1Cl)CN(C(=O)[C@@H]1CCN(c3ccnc(C(F)(F)F)c3)C1)C2 [Example 21, (3-chloro-2,4-dimethyl-5,7-dihydropyrrolo[3,4-b]pyridin-6-yl)-[(3R)-1-[2-(trifluoromethyl)-4-pyridyl]pyrrolidin-3-yl]methanone] | 131 nM | 550 nM
2 | COc1cc(N2CC[C@@H](C(=O)N3Cc4nc(C)c(Cl)c(C)c4C3)C2)ccn1 [Example 22, (3-chloro-2,4-dimethyl-5,7-dihydropyrrolo[3,4-b]pyridin-6-yl)-[(3R)-1-(2-methoxy-4-pyridyl)pyrrolidin-3-yl]methanone] | 507 nM | 677 nM
3 | Cc1nc2c(c(C)c1Cl)CN(C(=O)[C@@H]1CCN(c3ccnc(C(F)(F)F)n3)C1)C2 [Example 23, (3-chloro-2,4-dimethyl-5,7-dihydropyrrolo[3,4-b]pyridin-6-yl)-[(3R)-1-[2-(trifluoromethyl)pyrimidin-4-yl]pyrrolidin-3-yl]methanone] | 791 nM | 907 nM
4 | Cc1nc2c(c(C)c1Cl)CN(C(=O)[C@@H]1CCN(c3ccnc(C#N)n3)C1)C2 [Example 24, 4-[(3R)-3-(3-chloro-2,4-dimethyl-5,7-dihydropyrrolo[3,4-b]pyridine-6-carbonyl)pyrrolidin-1-yl]pyrimidine-2-carbonitrile] | 164 nM | 235 nM
5 | COc1nccc(N2CC[C@@H](C(=O)N3Cc4nc(C)c(Cl)c(C)c4C3)C2)n1 [Example 25, (3-chloro-2,4-dimethyl-5,7-dihydropyrrolo[3,4-b]pyridin-6-yl)-[(3R)-1-(2-methoxypyrimidin-4-yl)pyrrolidin-3-yl]methanone] | 4770 nM | 1600 nM
6 | Cc1cc(N2CC[C@@H](C(=O)N3Cc4nc(C)c(Cl)c(C)c4C3)C2)ncn1 [Example 26, (3-chloro-2,4-dimethyl-5,7-dihydropyrrolo[3,4-b]pyridin-6-yl)-[(3R)-1-(6-methylpyrimidin-4-yl)pyrrolidin-3-yl]methanone] | 120 nM | 166 nM
7 | Cc1nc2c(c(C)c1Cl)CN(C(=O)[C@@H]1CCN(c3cc(C(F)(F)F)ncn3)C1)C2 [Example 27, (3-chloro-2,4-dimethyl-5,7-dihydropyrrolo[3,4-b]pyridin-6-yl)-[(3R)-1-[6-(trifluoromethyl)pyrimidin-4-yl]pyrrolidin-3-yl]methanone] | 230 nM | 330 nM
8 | Cc1nc2c(c(C)c1Cl)CN(C(=O)[C@@H]1CCN(c3cc(C4CC4)ncn3)C1)C2 [Example 28, (3-chloro-2,4-dimethyl-5,7-dihydropyrrolo[3,4-b]pyridin-6-yl)-[(3R)-1-(6-cyclopropylpyrimidin-4-yl)pyrrolidin-3-yl]methanone] | 259 nM | 350 nM
9 | COc1cc(N2CC[C@@H](C(=O)N3Cc4nc(C)c(Cl)c(C)c4C3)C2)ncn1 [Example 29, (3-chloro-2,4-dimethyl-5,7-dihydropyrrolo[3,4-b]pyridin-6-yl)-[(3R)-1-(6-methoxypyrimidin-4-yl)pyrrolidin-3-yl]methanone] | 951 nM | 591 nM
10 | Cc1nc2c(c(C)c1Cl)CN(C(=O)[C@@H]1CCN(c3cncnc3)C1)C2 [Example 30, (3-chloro-2,4-dimethyl-5,7-dihydropyrrolo[3,4-b]pyridin-6-yl)-[(3R)-1-pyrimidin-5-ylpyrrolidin-3-yl]methanone] | 65 nM | 59 nM
11 | Cc1ncc(N2CC[C@@H](C(=O)N3Cc4nc(C)c(Cl)c(C)c4C3)C2)cn1 [Example 31, (3-chloro-2,4-dimethyl-5,7-dihydropyrrolo[3,4-b]pyridin-6-yl)-[(3R)-1-(2-methylpyrimidin-5-yl)pyrrolidin-3-yl]methanone] | 482 nM | 388 nM
12 | Cc1nc2c(c(C)c1Cl)CN(C(=O)[C@@H]1CCN(c3cnc(C(F)(F)F)nc3)C1)C2 [Example 32, (3-chloro-2,4-dimethyl-5,7-dihydropyrrolo[3,4-b]pyridin-6-yl)-[(3R)-1-[2-(trifluoromethyl)pyrimidin-5-yl]pyrrolidin-3-yl]methanone] | 1940 nM | 1950 nM
13 | COc1ncc(N2CC[C@@H](C(=O)N3Cc4nc(C)c(Cl)c(C)c4C3)C2)cn1 [Example 33, (3-chloro-2,4-dimethyl-5,7-dihydropyrrolo[3,4-b]pyridin-6-yl)-[(3R)-1-(2-methoxypyrimidin-5-yl)pyrrolidin-3-yl]methanone] | 242 nM | 2370 nM
14 | Cc1nc2c(c(C)c1Cl)CN(C(=O)[C@@H]1CCN(c3cnc(C4COC4)nc3)C1)C2 [Example 34, (3-chloro-2,4-dimethyl-5,7-dihydropyrrolo[3,4-b]pyridin-6-yl)-[(3R)-1-[2-(oxetan-3-yl)pyrimidin-5-yl]pyrrolidin-3-yl]methanone] | 603 nM | 575 nM
15 | CNc1ncc(N2CC[C@@H](C(=O)N3Cc4nc(C)c(Cl)c(C)c4C3)C2)cn1 [Example 35, (3-chloro-2,4-dimethyl-5,7-dihydropyrrolo[3,4-b]pyridin-6-yl)-[(3R)-1-[2-(methylamino)pyrimidin-5-yl]pyrrolidin-3-yl]methanone] | 817 nM | 1060 nM
16 | Cc1nc2c(c(C)c1Cl)CN(C(=O)[C@@H]1CCN(c3cnc(N(C)C)nc3)C1)C2 [Example 36, (3-chloro-2,4-dimethyl-5,7-dihydropyrrolo[3,4-b]pyridin-6-yl)-[(3R)-1-[2-(dimethylamino)pyrimidin-5-yl]pyrrolidin-3-yl]methanone] | 1720 nM | 1800 nM
17 | Cc1ncncc1N1CC[C@@H](C(=O)N2Cc3nc(C)c(Cl)c(C)c3C2)C1 [Example 37, (3-chloro-2,4-dimethyl-5,7-dihydropyrrolo[3,4-b]pyridin-6-yl)-[(3R)-1-(4-methylpyrimidin-5-yl)pyrrolidin-3-yl]methanone] | 405 nM | 394 nM
18 | Cc1nc2c(c(C)c1Cl)CN(C(=O)[C@@H]1CCN(c3ccnnc3)C1)C2 [Example 38, (3-chloro-2,4-dimethyl-5,7-dihydropyrrolo[3,4-b]pyridin-6-yl)-[(3R)-1-pyridazin-4-ylpyrrolidin-3-yl]methanone] | 332 nM | 274 nM
